Measured values published in patent US20230322789A1, “PYRAZOLOPYRIDAZINONE COMPOUND, AND PHARMACEUTICAL COMPOSITION AND USE THEREOF” (BroadenBio Co., Ltd., priority 2020, published 2023).
pIC50: −log10 of the molar value.

Experiments:
[1] = molecular target: HPK1 (Homo sapiens (Human), UniProt Q92918); test: HPK1 kinase activity inhibition test (ADP-Glo, luminescence); type: biochemical; settings: HPK1 5 nM, ATP 2 μM, read-out: IC50, inhibitory effects of compounds on HPK1 kinase activity
Summary of the method: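 HPK1 autophosphorylation was run without added substrate. Kinase and compound were preincubated 10 min at 25° C., then ATP was added for 60 min at 25° C. ADP formed was detected by ADP-Glo luminescence, and IC50 was taken from a four-parameter nonlinear fit.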

[2] = system: Human Jurkat-E6-1 cells; test: Measurement of IL-2 secretion of Jurkat cells by ELISA; type: cell-based; settings: anti-CD3/anti-CD28 stimulation 24 hours; for activity at 1 µM / activity at 3 µM: Homo sapiens, Jurkat E6.1, read-out: Percentage of the amount of IL-2 secreted from compound treated/DMSO-treated cells; for activity at 1 µM: test compound 1.0 μM
Description: 2. Measurement of IL-2 Secretion of Jurkat Cells by ELISA
Human Jurkat-E6-1 cells were incubated with various concentrations of test compounds for 30 minutes in a humidified incubator at 37° C. and […]. Cells were transferred to cell culture plates pre-coated with anti-human CD3 antibody, then soluble anti-human CD28 antibody was added, and cells were stimulated for 24 hours at 37° C. and 5% CO2 in a humidified incubator. The cell culture medium was collected by centrifugation, and was then transferred to a 96-well transparent microtiter plate (Thermo) pre-coated with anti-human IL-2 antibody, incubated at room temperature for 2 hours, and gently shaken, washed with washing buffer for 4 times, and then followed the ELISA MAX Deluxe Set Human IL-2 (BioLegend) kit procedure, used a microplate reader (Molecular Device, i3X) to read the GD value. The best standard curve was selected by the microplate reader application software, and the corresponding concentration was calculated according to the GD value of the standard. Results are expressed as a percentage of the amount of IL-2 secreted from compound-treated/DMSO-treated cells.

Chain of HPK1 (Q92918 whole entry): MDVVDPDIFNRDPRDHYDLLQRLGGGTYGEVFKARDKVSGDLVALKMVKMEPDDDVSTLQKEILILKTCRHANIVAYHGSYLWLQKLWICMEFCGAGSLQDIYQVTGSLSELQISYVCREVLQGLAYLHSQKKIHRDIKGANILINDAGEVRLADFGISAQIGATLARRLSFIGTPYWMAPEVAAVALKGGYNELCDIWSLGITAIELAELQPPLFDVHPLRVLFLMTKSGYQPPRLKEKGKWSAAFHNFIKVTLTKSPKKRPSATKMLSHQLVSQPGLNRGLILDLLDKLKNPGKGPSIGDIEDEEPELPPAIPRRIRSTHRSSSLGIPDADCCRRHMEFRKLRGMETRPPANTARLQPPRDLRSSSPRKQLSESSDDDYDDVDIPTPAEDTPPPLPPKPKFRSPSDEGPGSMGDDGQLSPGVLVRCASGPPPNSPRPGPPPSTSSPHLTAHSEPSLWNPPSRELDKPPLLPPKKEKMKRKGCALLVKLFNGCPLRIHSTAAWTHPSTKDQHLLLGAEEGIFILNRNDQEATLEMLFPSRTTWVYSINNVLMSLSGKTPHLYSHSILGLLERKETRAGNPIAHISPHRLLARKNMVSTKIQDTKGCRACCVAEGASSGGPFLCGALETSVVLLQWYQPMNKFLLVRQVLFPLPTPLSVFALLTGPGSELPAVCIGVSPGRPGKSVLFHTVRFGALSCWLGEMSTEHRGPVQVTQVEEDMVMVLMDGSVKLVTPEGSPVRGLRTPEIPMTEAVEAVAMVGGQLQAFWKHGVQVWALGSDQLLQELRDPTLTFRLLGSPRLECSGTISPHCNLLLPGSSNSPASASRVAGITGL

pIC50 [1] | Compound | activity at 1 µM [2] [%] | activity at 3 µM ([2]; test compound 3.0 μM) [%] | Percentage of the amount of IL-2 secreted from compound treated/DMSO-treated cells ([2]; test compound 3.0 μM) [%]
≥ 7.30 | CN1CCN(c2ccc(-c3n[nH]c4cc(=O)n(-c5c(F)cccc5C5CC5)nc34)cc2)CC1 [Compound 34, 5-(2-fluoro-6-cyclopropylphenyl)-3-(4-(4-methylpiperazin-1-yl)phenyl)-1H-pyrazolo[4,3-c]pyridazin-6(5H)-one] | 284 |  | 
≥ 7.30 | COc1cccc(F)c1-n1nc2c(-c3cccc(N4CCN(C)CC4)c3)n[nH]c2cc1=O [Compound 199, 5-(2-fluoro-6-methoxyphenyl)-3-(3-(4-methylpiperazin-1-yl)phenyl)-1H-pyrazolo[4,3-c]pyridazin-6(5H)-one] | 328 |  | 
≥ 7.30 | COc1cc(C#N)cc(F)c1-n1nc2c(-c3ccc4c(c3)CN(C)CC4)n[nH]c2cc1=O [Compound 159, 3-fluoro-5-methoxy-4-(3-(2-methyl-1,2,3,4-tetrahydroisoquinolin-7-yl)-6-oxo-1H-pyrazolo[4,3-c]pyridazin-5(6H)-yl)benzonitrile] |  | 454 | 
≥ 7.30 | COc1cccc(F)c1-n1nc2c(-c3ccc4c(c3)CN(C)CC4)n[nH]c2cc1=O [Compound 73, 5-(2-fluoro-6-methoxyphenyl)-3-(2-methyl-1,2,3,4-tetrahydroisoquinolin-7-yl)-1H-pyrazolo[4,3-c]pyridazin-6(5H)-one] |  | 926 | 
6.30 to 7.30 | Cc1cccc(F)c1-n1nc2c(-c3ccc(N4C[C@H]5C[C@@H]4CN5C)cc3)n[nH]c2cc1=O [Compound 88, 5-(2-fluoro-6-methylphenyl)-3-(4-((1R,4R)-5-methyl-2,5-diazabicyclo[2.2.1]heptan-2-yl)phenyl)-1H-pyrazolo[4,3-c]pyridazin-6(5H)-one] |  | 550 | 
≥ 7.30 | CCS(=O)(=O)N1CCN(c2ccc(-c3n[nH]c4cc(=O)n(-c5c(C)cccc5F)nc34)cn2)CC1 [Compound 105] |  | 623 | 
6.30 to 7.30 | COc1cccc(F)c1-n1nc2c(-c3ccc(N4CCN(C)CC4)cc3)n[nH]c2c(C)c1=O [Compound 154, 5-(2-fluoro-6-methoxyphenyl)-7-methyl-3-(4-(4-methylpiperazin-1-yl)phenyl)-1H-pyrazolo[4,3-c]pyridazin-6(5H)-one] | 382 |  | 
≥ 7.30 | COc1cccc(F)c1-n1nc2c(-c3ccc(N4CCN5CCOC[C@@H]5C4)cc3)n[nH]c2cc1=O [Compound 135, (S)-5-(2-fluoro-6-methoxyphenyl)-3-(4-(hexahydropyrazino[2,1-c][1,4]oxazin-8(1H)-yl)phenyl)-1H-pyrazolo[4,3-c]pyridazin-6(5H)-one] |  | 964 | 
≥ 7.30 | COc1cccc(F)c1-n1nc2c(-c3cnc(N4CCOCC4)s3)n[nH]c2cc1=O [Compound 148] | 531 |  | 
≥ 7.30 | COc1cc(C#N)cc(F)c1-n1nc2c(-c3ccc(N4CCN(C5COC5)CC4)cc3)n[nH]c2cc1=O [Compound 86, 3-fluoro-5-methoxy-4-(3-(4-(4-(oxetan-3-yl)piperazin-1-yl)phenyl)-6-oxo-1H-pyrazolo[4,3-c]pyridazin-5(6H)-yl)benzonitrile] |  | 334 | 
6.30 to 7.30 | Cc1cc(C#N)cc(F)c1-n1nc2c(-c3ccc(N4CCN(C)CC4)nc3)n[nH]c2cc1=O [Compound 99, 3-fluoro-5-methyl-4-(3-(6-(4-methylpiperazin-1-yl)pyrid-3-yl)-6-oxo-1H-pyrazolo[4,3-c]pyridazin-5(6H)-yl)benzonitrile] |  | 237 | 
6.30 to 7.30 | COc1cccc(F)c1-n1nc2c(-c3cnn(C4CCN(C)CC4)c3)n[nH]c2cc1=O [Compound 20] | 329 |  | 
6.30 to 7.30 | Cc1cccc(F)c1-n1nc2c(-c3ccc(N4CCN(C5CC5)CC4)cc3)n[nH]c2cc1=O [Compound 58, 3-(4-(4-cyclopropylpiperazin-1-yl)phenyl)-5-(2-fluoro-6-methylphenyl)-1H-pyrazolo[4,3-c]pyridazin-6(5H)-one] |  | 233 | 
≥ 7.30 | Cc1cc(C#N)cc(F)c1-n1nc2c(-c3ccc(N4CCN(C)CC4)cc3)n[nH]c2cc1=O [Compound 42, 3-fluoro-5-methyl-4-(3-(4-(4-methylpiperazin-1-yl)phenyl)-6-oxo-1H-pyrazolo[4,3-c]pyridazin-5(6H)-yl)benzonitrile] |  | 365 | 
≥ 7.30 | COc1cccc(F)c1-n1nc2c(-c3cc(N4CCN(C)CC4)ccc3F)n[nH]c2cc1=O [Compound 210, 3-(2-fluoro-5-(4-methylpiperazin-1-yl)phenyl)-5-(2-fluoro-6-methoxyphenyl)-1H-pyrazolo[4,3-c]pyridazin-6(5H)-one] | 298 |  | 
≥ 7.30 | COc1cccc(F)c1-n1nc2c(-c3ccc(N4CCC(C)(N(C)C)CC4)cc3)n[nH]c2cc1=O [Compound 147, 3-(4-(4-(dimethylamino)-4-methylpiperidin-1-yl)phenyl)-5-(2-fluoro-6-methoxyphenyl)-1H-pyrazolo[4,3-c]pyridazin-6(5H)-one] |  | 616 | 
≥ 7.30 | Cc1cccc(F)c1-n1nc2c(-c3ccc(N4CCN(C5COC5)CC4)nc3)n[nH]c2cc1=O [Compound 103] |  | 716 | 
≥ 7.30 | CN1CCN(c2ccc(-c3n[nH]c4cc(=O)n(-c5ccccc5F)nc34)cc2)CC1 [Compound 6, 5-(2-fluorophenyl)-3-(4-(4-methylpiperazin-1-yl)phenyl)-1H-pyrazolo[4,3-c]pyridazin-6(5H)-one] | 185 |  | 
≥ 7.30 | COc1cc(C#N)cc(F)c1-n1nc2c(-c3ccc(N4CCN(C)CC4)cc3)n[nH]c2cc1=O [Compound 74, 3-fluoro-5-methoxy-4-(3-(4-(4-methylpiperazin-1-yl)phenyl)-6-oxo-1H-pyrazolo[4,3-c]pyridazin-5(6H)-yl)benzonitrile] |  | 411 | 
6.30 to 7.30 | Cc1cccc(F)c1-n1nc2c(-c3ccc4c(c3)CN(C3CC(N)C3)CC4)n[nH]c2cc1=O (stereo not shown) [Compound 163] |  | 117 | 
6.30 to 7.30 | Cc1cc(Cl)cc(F)c1-n1nc2c(-c3ccc(N4CCN(C)CC4)nc3)n[nH]c2cc1=O [Compound 108] |  | 312 | 
≥ 7.30 | COc1cccc(F)c1-n1nc2c(-c3ccc(N4CCN(CC(C)(C)O)CC4)cc3)n[nH]c2cc1=O [Compound 115, 5-(2-fluoro-6-methoxyphenyl)-3-(4-(4-(2-hydroxyl-2-methylpropyl)piperazin-1-yl)phenyl)-1H-pyrazolo[4,3-c]pyridazin-6(5H)-one] |  | 542 | 
≥ 7.30 | COCCN1CCN(c2ccc(-c3n[nH]c4cc(=O)n(-c5c(C)cccc5F)nc34)cn2)CC1 [Compound 119, 5-(2-fluoro-6-methylphenyl)-3-(6-(4-(2-methoxyethyl)piperazin-1-yl)pyrid-3-yl)-1H-pyrazolo[4,3-c]pyridazin-6(5H)-one] |  | 531 | 
6.30 to 7.30 | COc1ccc(-n2nc3c(-c4ccc(N5CCN(C)CC5)cc4)n[nH]c3cc2=O)c(OC)c1 [Compound 25, 5-(2,4-dimethoxyphenyl)-3-(4-(4-methylpiperazin-1-yl)phenyl)-1H-pyrazolo[4,3-c]pyridazin-6(5H)-one] | 187 |  | 
≥ 7.30 | Cc1cccc(F)c1-n1nc2c(-c3cccc(N4CCN(C)CC4)c3)n[nH]c2cc1=O [Compound 198, 5-(2-fluoro-6-methylphenyl)-3-(3-(4-methylpiperazin-1-yl)phenyl)-1H-pyrazolo[4,3-c]pyridazin-6(5H)-one] |  | 280 | 
≥ 7.30 | CNC(=O)c1cc(F)c(-n2nc3c(-c4ccc(N5CCN(C)CC5)cc4)n[nH]c3cc2=O)c(OC)c1 [Compound 79, 3-fluoro-5-methoxy-N-methyl-4-(3-(4-(4-methylpiperazin-1-yl)phenyl)-6-oxo-1H-pyrazolo[4,3-c]pyridazin-5(6H)-yl)benzamide] |  | 361 | 

Compound | pIC50 [1] | activity at 1 µM [2] [%] | activity at 3 µM ([2]; test compound 3.0 μM) [%] | Percentage of the amount of IL-2 secreted from compound treated/DMSO-treated cells ([2]; test compound 3.0 μM) [%]
COc1cccc(F)c1-n1nc2c(-c3cccc(N4CCCC(N)C4)c3)n[nH]c2cc1=O (stereo not shown) [Compound 204] | ≥ 7.30 |  |  | 260
Cc1cccc(F)c1-n1nc2c(-c3ccc(N4CC5CCC(C4)N5CCO)cc3)n[nH]c2cc1=O [Compound 117, 5-(2-fluoro-6-methylphenyl)-3-(4-(8-(2-hydroxyethyl)-3,8-diazabicyclo[3.2.1]octan-3-yl)phenyl)-1H-pyrazolo[4,3-c]pyridazin-6(5H)-one] | ≥ 7.30 |  | 566 | 
COc1cccc(F)c1-n1nc2c(-c3cccc(N4CC5CCC(C4)N5C)c3)n[nH]c2cc1=O [Compound 202, 5-(2-fluoro-6-methoxyphenyl)-3-(3-(8-methyl-3,8-diazabicyclo[3.2.1]octan-3-yl)phenyl)-1H-pyrazolo[4,3-c]pyridazin-6(5H)-one] | ≥ 7.30 | 539 |  | 
